Data published in ChEMBL document CHEMBL1221351, “Styrylpyrones from the medicinal fungus Phellinus baumii and their antioxidant properties” (Bioorg Med Chem Lett, 2010).
The source made the active and inactive calls. The rule behind the calls is not given here.

Assays:
Type in all cases: functional
[1] = Antioxidant activity assessed as inhibition of fenton reaction-induced pBR322 DNA single strand break by CAS assay
[2] = Antioxidant activity assessed as inhibition of fenton reaction-induced pBR322 DNA single strand break by agarose gel electrophoresis
[3] = Antioxidant activity assessed as ABTS radical scavenging activity
[4] = test system: Radical scavenging activity; experiment: Antioxidant activity assessed as DPPH radical scavenging activity

O=c1cc(O)cc(/C=C/c2ccc(O)c(O)c2)o1
Activity [1]: Active | Activity [2]: inactive

CC1=CC(=O)[C@H](c2c(O)cc(/C=C/c3ccc(O)c(O)c3)oc2=O)[C@@H](c2ccc(O)c(O)c2)O1 [DAVALLIALACTONE]
Activity [1]: Active | Activity [2]: Active | IC50 [3]: 2.8 µM | IC50 [4]: 1.2 µM

CC1=CC(=O)C2(O1)c1c(cc(/C=C/c3ccc(O)c(O)c3)oc1=O)OC2c1ccc(O)c(O)c1 (stereo not drawn)
Activity [1]: Active | Activity [2]: Active

COC(=O)CC1=CC(=O)[C@H](c2c(O)cc(/C=C/c3ccc(O)c(O)c3)oc2=O)[C@@H](c2ccc(O)c(O)c2)O1 [BAUMIN]
Activity [1]: Active | Activity [2]: Active | IC50 [3]: 11.7 µM | IC50 [4]: 7.5 µM

O=c1oc2cc(/C=C/c3ccc(O)c(O)c3)oc(=O)c2c2cc(O)c(O)cc12
Activity [1]: Active | Activity [2]: Active

O=c1cc(O)cc([C@H]2c3c(cc(/C=C/c4ccc(O)c(O)c4)oc3=O)O[C@@H]2c2ccc(O)c(O)c2)o1
Activity [1]: Active | Activity [2]: Active

CC(=O)/C=C(O)/C(=C\c1ccc(O)c(O)c1)c1c(O)cc(/C=C/c2ccc(O)c(O)c2)oc1=O
Activity [1]: Active | Activity [2]: Active
